Test results as given in US11479551B2, “MTA-cooperative PRMT5 inhibitors” (Mirati Therapeutics, Inc., priority 2019, dated 2022).
Where two headings read alike, the source gives them in different places.

Key:
[1] = system: HCT116 homozygous MTAP knockout cells; test: Proliferation assay (CellTiter-Glo, 10 days of treatment), HCT116 MTAP knockout; assay type: cell-based; conditions: read-out: Proliferation HCT116MTAP_KO IC50
Description: (§1) 1. HCT116 MTAP Knockout Model
(§2) HCT116 cells were genetically engineered to knock out the function of both MTAP alleles using a CRISPR/Cas9 system and an sgRNA targeting the MTAP gene. Following Cas9/MTAP sgRNA transduction, clones were screened to confirm that each allele of the MTAP gene had been inactivated (i.e., homozygous MTAP knock out) creating an MTAP-deficient cell.
(§3) Control samples were analyzed in parallel.
Briefly, on Day 0, 250 HCT116 parental or HCT116 homozygous MTAP knockout cell were seeded in 96 well plates in McCoy's 5A supplemented with 10% fetal bovine serum and pen/strep and the cells were incubated overnight at 37° C. plus 5% CO2.
The following day, cells were treated with DMSO vehicle control or a dose response of PRMT5 inhibitors and incubated at 37 C plus 5% CO2 for five days. On Day 6, the cells were trypsinized and split 1:10 into new 96-well plates with fresh medium containing the same concentration of PRMT5 inhibitor and incubated for an additional 5 days at 37° C. plus 5% CO^2.
On Day 11, the viability of the cells was measured using a CTG assay kit (CellTiter-Glo; Promega cat.no G7573) in accordance with the manufacturer's instructions. The IC50 values for each compound after 10 days of treatment were calculated using GraphPad PRISM software.

[2] = system: PRMT5-dependent Symmetric Di-methyl Arginine signal in HCT116 homozygous MTAP knockout cells; test: SYM11 In-Cell Western, HCT116 MTAP knockout; assay type: cell-based
Description: as §1, §2, §3
Briefly, on Day 0, 2,000 HCT116 parental or HCT116 homozygous MTAP knockout cells were seeded in 96 well plates in McCoy's 5A supplemented with 10% fetal bovine serum and pen/strep and the cells were incubated overnight at 37° C. plus 5% CO2. The following day, cells were treated with DMSO vehicle control or a dose response of PRMT5 inhibitors, and incubated at 37° C. plus 5% CO^2 for four days.
After 4 days of treatment, the cells were fixed by adding 50 μl of 4% paraformaldehyde solution to each well and the cells were incubated for 20 min at room temperature. The paraformaldehyde solution was removed, 150 μl of ice-cold methanol was added and the plate was placed −20° C. for 10 minutes. The methanol was removed, 150 μl of Odyssey Blocking buffer+0.05% Tween20 was added and the plate was incubated at room temperature with shaking for one hour.
The primary SYM11 antibody solution was removed by aspiration and the wells were washed three consecutive times with phosphate buffered saline containing 0.1% Tween-20 (PBST).
The secondary antibody solution was removed by aspiration and the wells were washed three consecutive times with PB ST.
The SYM11 signal and the DRAQ5 signal were quantified using a Li-Cor Odyssey machine reading at […], respectively. The SYM11/DRAQ5 ratio was used to calculate the inhibition of Symmetric Dimethyl Arginine as percent of DMSO control.

PRMT5/MEP50 complex [3] = molecular target: T1, PRMT5/MEP50 complex (Homo sapiens (Human), UniProt O14744); test: PRMT5:MEP50 HotSpot Assay (full-length histone H2A substrate, plus and minus MTA); assay type: biochemical
T1 sequence (O14744 2-637): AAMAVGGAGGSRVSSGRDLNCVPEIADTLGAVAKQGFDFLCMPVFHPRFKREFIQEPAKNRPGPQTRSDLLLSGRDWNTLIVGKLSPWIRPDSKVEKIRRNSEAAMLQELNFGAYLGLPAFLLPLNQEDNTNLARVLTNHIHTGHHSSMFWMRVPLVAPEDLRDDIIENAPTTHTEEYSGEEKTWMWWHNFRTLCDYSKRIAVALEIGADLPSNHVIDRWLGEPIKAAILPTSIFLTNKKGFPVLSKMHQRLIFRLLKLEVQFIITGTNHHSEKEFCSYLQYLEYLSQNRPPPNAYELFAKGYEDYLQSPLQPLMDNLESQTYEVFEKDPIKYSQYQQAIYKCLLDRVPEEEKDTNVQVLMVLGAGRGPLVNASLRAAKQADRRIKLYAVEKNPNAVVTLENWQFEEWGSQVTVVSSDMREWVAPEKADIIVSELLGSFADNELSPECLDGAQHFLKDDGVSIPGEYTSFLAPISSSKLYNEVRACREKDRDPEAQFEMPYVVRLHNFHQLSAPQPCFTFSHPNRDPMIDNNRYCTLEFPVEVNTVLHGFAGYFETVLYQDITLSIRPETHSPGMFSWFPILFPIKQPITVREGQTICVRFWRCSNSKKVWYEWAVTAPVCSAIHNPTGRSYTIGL
T1 sequence (Q9BQA1 2-342 partner): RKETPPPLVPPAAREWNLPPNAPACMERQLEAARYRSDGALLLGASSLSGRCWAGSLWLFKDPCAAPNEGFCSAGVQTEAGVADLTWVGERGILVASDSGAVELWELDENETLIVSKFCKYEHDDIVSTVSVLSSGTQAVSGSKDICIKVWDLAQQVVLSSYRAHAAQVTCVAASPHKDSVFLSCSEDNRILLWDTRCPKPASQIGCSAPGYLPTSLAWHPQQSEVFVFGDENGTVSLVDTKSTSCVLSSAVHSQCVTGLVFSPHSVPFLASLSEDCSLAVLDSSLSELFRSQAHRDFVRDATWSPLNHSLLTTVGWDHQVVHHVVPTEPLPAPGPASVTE
Description: (§4) The PRMT5 inhibitory activity of compounds of the present invention was determined using either a PRMT5:MEP50 FlashPlate Assay (Reaction Biology Corporation) or a PRMT5:MEP50 HotSpot Assay (Reaction Biology Corporation).
The assay uses recombinant full-length histone H2A as the PRMT5 substrate. […] The reaction was stopped and transferred to filter paper for detection. The amount of tritiated H2A in each sample was determined using a scintillation counter.

PRMT5/MEP50 complex [4] = molecular target: T1, PRMT5/MEP50 complex; test: PRMT5:MEP50 FlashPlate Assay (histone H4 peptide substrate, plus and minus MTA); assay type: biochemical
Description: as §4
1. PRMT5:MEP50 FlashPlate Assay

[5] = HCT116 homozygous MTAP knockout cells, 4 days of treatment, SYM11/DRAQ5 ratio; read-out: In-cell-Western (SYM11) HCT116 MTAP_KO IC50
[6] = Homo sapiens, HCT-116, 96 h, HCT116 homozygous MTAP knockout cells, 4 days of treatment, SYM11/DRAQ5 ratio; read-out: In-cell-Western (SYM11) HCT116 MTAP_KO IC50
[7] = read-out: In-cell-Western (SYM11) HCT116 MTAP_KO IC50; HCT116 homozygous MTAP knockout cells, 4 days of treatment, SYM11/DRAQ5 ratio
[8] = IC50 + 2 μM MTA, in the presence of 2 μM MTA
[9] = IC50 + 2 μM MTA (nM), in the presence of 2 μM MTA
[10] = in the absence of MTA, read-out: IC50

Structure (SMILES)	IC50 (PRMT5/MEP50 complex [3]; [8])	IC50 (PRMT5/MEP50 complex [4]; [9])	IC50 (PRMT5/MEP50 complex [4]; [10])	IC50 (PRMT5/MEP50 complex [3]; [10])	also measured
CC(N)c1n[nH]c(=O)c2ccc(-c3cnn(C)c3-c3ccc4ccccc4c3C#N)cc12 (single isomer, unassigned) [Example 9-4, 2-[4-[4-(1-aminoethyl)-1-oxo-2H-phthalazin-6-yl]-2-methyl-pyrazol-3-yl]naphthalene-1-carbonitrile]					IC50 [1]: 4180 nM; IC50 [2, 5]: > 1000 nM
CCOc1cc(-c2cnn(C)c2-c2c(F)cc3ccccc3c2C#N)cc2c(CN)n[nH]c(=O)c12 (single isomer, unassigned) [Example 16-3, 2-[4-[4-(aminomethyl)-8-ethoxy-1-oxo-2H-phthalazin-6-yl]-2-methyl-pyrazol-3-yl]-3-fluoro-naphthalene-1-carbonitrile]					IC50 [1]: 84 nM; IC50 [2, 6]: 15 nM
CCOc1cc(-c2cnn(C)c2-c2c(F)cc3ccccc3c2C#N)cc2c(CN)n[nH]c(=O)c12 (single isomer, unassigned) [Example 16-4, 2-[4-[4-(aminomethyl)-8-ethoxy-1-oxo-2H-phthalazin-6-yl]-2-methyl-pyrazol-3-yl]-3-fluoro-naphthalene-1-carbonitrile]					IC50 [1]: 15 nM; IC50 [2, 5]: 12 nM
Cn1ncc(-c2ccc3c(=O)[nH]nc(CN)c3c2)c1-c1c(F)c(Cl)cc(OC2CC2)c1C#N (single isomer, unassigned) [Example 16-7, 2-(4-(4-(aminomethyl)-1-oxo-1,2-dihydrophthalazin-6-yl)-1-methyl-1H-pyrazol-5-yl)-4-chloro-6-cyclopropoxy-3-fluorobenzonitrile]					IC50 [1]: 4000 nM; IC50 [2, 7]: 1000 nM
Cn1ncc(-c2ccc3c(=O)[nH]nc(CN)c3c2)c1-c1c(F)c(Cl)cc(OC2CC2)c1C#N (single isomer, unassigned) [Example 16-8, 2-(4-(4-(aminomethyl)-1-oxo-1,2-dihydrophthalazin-6-yl)-1-methyl-1H-pyrazol-5-yl)-4-chloro-6-cyclopropoxy-3-fluorobenzonitrile]					IC50 [1]: 24 nM; IC50 [2, 7]: 0.8 nM
N#Cc1ccccc1-c1cncc(-c2ccc3c(=O)[nH]nc(CN)c3c2)c1 [Example 3-40, 2-(5-(4-(aminomethyl)-1-oxo-1,2-dihydrophthalazin-6-yl)pyridin-3-yl)benzonitrile]	9690 nM	6 nM	193 nM		
NCc1n[nH]c(=O)c2ccc(-c3cncc(Oc4ccccc4)c3)cc12 [Example 3-50, 4-(aminomethyl)-6-(5-phenoxypyridin-3-yl)phthalazin-1(2H)-one]	3780 nM	10 nM	277 nM	> 10000 nM	
NCc1n[nH]c(=O)c2ccc(-c3cnc4[nH]ccc4c3)cc12 [Example 3-59, 4-(aminomethyl)-6-(1H-pyrrolo[2,3-b]pyridin-5-yl)phthalazin-1(2H)-one]	1140 nM	7.7 nM	399 nM	> 10000 nM	
COc1ccc2ncc(-c3ccc4c(=O)[nH]nc(CN)c4c3)n2c1 [Example 4-16, 4-(aminomethyl)-6-(6-methoxyimidazo[1,2-a]pyridin-3-yl)phthalazin-1(2H)-one]	8850 nM	9.4 nM	602 nM		
Cn1ncc(-c2ccc3c(=O)[nH]nc(CN)c3c2)c1-c1ccccc1 [Example 4-32, 4-(aminomethyl)-6-(1-methyl-5-phenyl-1H-pyrazol-4-yl)phthalazin-1(2H)-one]	2040 nM	1.6 nM	45 nM	> 10000 nM	
CCOc1ccc2ncc(-c3ccc4c(=O)[nH]nc(CN)c4c3)n2c1 [Example 4-36, 4-(aminomethyl)-6-(6-ethoxyimidazo[1,2-a]pyridin-3-yl)phthalazin-1(2H)-one]	2800 nM	13 nM	541 nM		
Cc1c[nH]c2ncc(-c3ccc4c(=O)[nH]nc(CN)c4c3)cc12 [Example 4-40, 4-(aminomethyl)-6-(3-methyl-1H-pyrrolo[2,3-b]pyridin-5-yl)phthalazin-1(2H)-one]	3170 nM	10 nM	276 nM		
NCc1n[nH]c(=O)c2ccc(-c3cnc4[nH]cc(Cl)c4c3)cc12 [Example 4-44, 4-(aminomethyl)-6-(3-chloro-1H-pyrrolo[2,3-b]pyridin-5-yl)phthalazin-1(2H)-one]	6830 nM	5.4 nM	691 nM	> 10000 nM	
CCc1c[nH]c2ncc(-c3ccc4c(=O)[nH]nc(CN)c4c3)cc12 [Example 4-45, 4-(aminomethyl)-6-(3-ethyl-1H-pyrrolo[2,3-b]pyridin-5-yl)phthalazin-1(2H)-one]	2790 nM	16 nM	291 nM		
NCc1n[nH]c(=O)c2ccc(-c3cncc(C(O)c4ccccc4)c3)cc12 (stereo not shown) [Example 4-51, 4-(aminomethyl)-6-(5-(hydroxy(phenyl)methyl)pyridin-3-yl)phthalazin-1(2H)-one]	1510 nM	5.8 nM	530 nM	> 10000 nM	
NCc1n[nH]c(=O)c2ccc(-c3cncc(Oc4ccccc4Cl)c3)cc12 [Example 4-71, 4-(aminomethyl)-6-(5-(2-chlorophenoxy)pyridin-3-yl)phthalazin-1(2H)-one]	1050 nM	4.9 nM	116 nM	> 10000 nM	
Cc1ccc(Oc2cncc(-c3ccc4c(=O)[nH]nc(CN)c4c3)c2)c(C)c1 [Example 4-73, 4-(aminomethyl)-6-(5-(2,4-dimethylphenoxy)pyridin-3-yl)phthalazin-1(2H)-one]	933 nM	0.6 nM	24 nM		
NCc1n[nH]c(=O)c2ccc(-c3cnn4c3CN(c3ccccc3)CC4)cc12 [Example 4-83, 4-(aminomethyl)-6-(5-phenyl-4,5,6,7-tetrahydropyrazolo[1,5-a]pyrazin-3-yl)phthalazin-1(2H)-one]	2710 nM	14 nM	344 nM		
COc1cccc(-c2c(-c3ccc4c(=O)[nH]nc(CN)c4c3)cnn2C)c1 [Example 4-93, 4-(aminomethyl)-6-(5-(3-methoxyphenyl)-1-methyl-1H-pyrazol-4-yl)phthalazin-1(2H)-one]	845 nM	3.3 nM	85 nM		
Cn1ncc(-c2ccc3c(=O)[nH]nc(CN)c3c2)c1-c1ccc(Cl)cc1 [Example 4-96, 4-(aminomethyl)-6-(5-(4-chlorophenyl)-1-methyl-1H-pyrazol-4-yl)phthalazin-1(2H)-one]	868 nM	3.9 nM	116 nM	> 10000 nM	
COc1ccc(-c2c(-c3ccc4c(=O)[nH]nc(CN)c4c3)cnn2C)cc1 [Example 4-98, 4-(aminomethyl)-6-(5-(4-methoxyphenyl)-1-methyl-1H-pyrazol-4-yl)phthalazin-1(2H)-one]	635 nM	2.1 nM	90 nM		
Cn1ncc(-c2ccc3c(=O)[nH]nc(CN)c3c2)c1-c1ccc(Cl)c(OC2CC2)c1C#N [Example 4-208, 6-(4-(4-(aminomethyl)-1-oxo-1,2-dihydrophthalazin-6-yl)-1-methyl-1H-pyrazol-5-yl)-3-chloro-2-cyclopropoxybenzonitrile]					IC50 ([1]; Homo sapiens, HCT-116, 240 h): 124 nM; IC50 [2, 6]: 11 nM
